Laboratory results: patent publication US8119672B2, “Compounds, compositions and methods for treating or preventing pneumovirus infection and associated diseases” (Microdose Therapeutx, Inc., priority 2002, dated 2012)

Assay: Solubility in ethanol/propylene glycol/water (85:10:5)
Format: physicochemical
Conditions: R1 in meta position (compound of the invention); ethanol/propylene glycol/water (85:10:5) by volume
Description: The solubilities are measured in ethanol/propylene glycol/water (85:10:5) (proportions are by volume).

Row | Compound | Meta Position Solubiity [mg/mL]
1 | 3-[[Bis[[5-(5-methyl-1H-tetrazol-1-yl)imino]methyl]-2-hydroxyphenyl]methylene] -N,N-dimethylbenzenesulfonamide [Example 31] | 0.08
2 | CCCc1cccc(C(c2cc(C=Nn3nnnc3C)ccc2O)c2cc(C=Nn3nnnc3C)ccc2O)c1 (stereo not drawn) [Example 1, 2,2′-[(3-Propylphenyl)methylene]bis[4-[[(5-methyl-1H-tetrazol-1-yl)imino]methyl]]phenol] | 1.9
3 | Cc1nnnn1N=Cc1ccc(O)c(C(c2cccc(N(C)C)c2)c2cc(C=Nn3nnnc3C)ccc2O)c1 (stereo not drawn) [Example 2, 2,2′-[[(3-Dimethylamino)phenyl]methylene]bis[4-[[(5-methyl-1H-tetrazol-1-yl)imino]methyl]]phenol] | 2.10
4 | CCOc1cccc(C(c2cc(C=Nn3nnnc3C)ccc2O)c2cc(C=Nn3nnnc3C)ccc2O)c1 (stereo not drawn) [Example 6, 2,2′-[(3-Ethoxyphenyl)methylene]bis[4-[[(5-methyl-1H-tetrazol-1-yl)imino]methyl]]phenol] | 1.85
5 | CCN(CC)c1cccc(C(c2cc(C=Nn3nnnc3C)ccc2O)c2cc(C=Nn3nnnc3C)ccc2O)c1 (stereo not drawn) [Example 20, 2,2′-[[(3-Diethylamino)phenyl]methylene]bis[4-[[(5-methyl-1H-tetrazol-1-yl)imino]methyl]]phenol] | 1.45
6 | Cc1nnnn1N=Cc1ccc(O)c(C(c2cccc([N+](=O)[O-])c2)c2cc(C=Nn3nnnc3C)ccc2O)c1 (stereo not drawn) [Example 27, 2,2′-[(3-Nitrophenyl)methylene]bis[4-[[(5-methyl-1H-tetrazol-1-yl)imino]methyl]]phenol] | 0.98
